Data as given in patent US20260325533A1, “CDK INHIBITOR COMPOUNDS” (ALEKSIA THERAPEUTICS, INC., priority 2023, published 2026).
Like-named read-outs stand apart in the source and are kept apart here.

Tests used:
Assay type in all cases: biochemical
[1] = target: CDK2/CCNE1 (Homo sapiens, UniProt P24941); test: CDK2 homogeneous time-resolved fluorescence (HTRF) kinase assay; settings: CDK2/CCNE
Summary of the method: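 3 nM CDK2/CCNE1 was preincubated with compound for 20 min at 23 °C in HEPES buffer (pH not stated), then reacted 60 min with 1 mM ATP and 50 nM ULight-4E-BP1 (Thr37/46) peptide. After EDTA stop, Eu-anti-phospho-4E-BP1 antibody (2 nM) was added for 60 min and TR-FRET read at 665 nm.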

[2] = target: CDK1/CCNB1 (Homo sapiens, UniProt P06493); test: CDK1 homogeneous time-resolved fluorescence (HTRF) kinase assay; settings: CDK1/CCNB; x = IC50 >250 nM; read-out: CDK1/CCNB IC50 (>250 nM column)
Summary of the method: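 CDK1/CCNB1 0.5 nM + cpd, 20 min 23 °C; add 1 mM ATP, 50 nM ULight-4E-BP1 peptide, 60 min 23 °C; stop 10 mM EDTA; 2 nM Eu-Ab, 60 min; HTRF 665 nm. 11-pt half-log, top 10 μM typical; IC50.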

[3] = target: CDK4/CCND3 (Homo sapiens, UniProt P11802); test: CDK4 homogeneous time-resolved fluorescence (HTRF) kinase assay; settings: CDK4/CCND; x = IC50 >250 nM; read-out: CDK4/CCND IC50 (>250 nM column)
Summary of the method: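 Compounds were preincubated with 1.5 nM CDK4/CCND3 for 20 min at 23 °C in HEPES buffer (pH not given), then reacted 60 min with 1 mM ATP and 50 nM ULight-4E-BP1 (Thr37/46) peptide. EDTA stop, Eu-anti-phospho-4E-BP1 detection; 665/615 nm ratio; IC50 from 11-point half-log titrations from 10 μM.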

[4] = target: CDK6/CCND1 (Homo sapiens, UniProt Q00534); test: CDK6 homogeneous time-resolved fluorescence (HTRF) kinase assay; settings: CDK6/CCND
Summary of the method: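 1 nM enzyme, 1 mM ATP, 50 nM ULight-4E-BP1 (Thr37/46) peptide, 1% DMSO; 20 min compound preincubation, 60 min reaction, 23 °C. EDTA stop, 2 nM Eu-anti-phospho-4E-BP1 antibody 60 min. TR-FRET 665 nm (or 665/615 ratio); IC50 from 11-point half-log titration, top 10 μM.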

[5] = x = IC50 25-250 nM, read-out: CDK2/CCNE IC50 (25-250 nM)
[6] = x = IC50 >250 nM, read-out: CDK6/CCND IC50 (>250 nM column)
[7] = x = IC50 <25 nM, read-out: CDK2/CCNE IC50 (<25 nM)

Chain of CDK6/CCND1 (Q00534 whole entry): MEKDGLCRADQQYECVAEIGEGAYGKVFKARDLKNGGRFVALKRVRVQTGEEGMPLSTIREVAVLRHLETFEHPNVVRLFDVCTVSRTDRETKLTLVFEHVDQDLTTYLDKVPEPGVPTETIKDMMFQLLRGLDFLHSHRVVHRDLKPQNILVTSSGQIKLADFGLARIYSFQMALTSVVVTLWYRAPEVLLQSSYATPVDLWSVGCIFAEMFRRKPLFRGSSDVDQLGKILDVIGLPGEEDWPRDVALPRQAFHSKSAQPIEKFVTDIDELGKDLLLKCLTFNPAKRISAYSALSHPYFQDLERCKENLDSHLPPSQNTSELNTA
Chain of CDK6/CCND1 (P24385 whole entry partner): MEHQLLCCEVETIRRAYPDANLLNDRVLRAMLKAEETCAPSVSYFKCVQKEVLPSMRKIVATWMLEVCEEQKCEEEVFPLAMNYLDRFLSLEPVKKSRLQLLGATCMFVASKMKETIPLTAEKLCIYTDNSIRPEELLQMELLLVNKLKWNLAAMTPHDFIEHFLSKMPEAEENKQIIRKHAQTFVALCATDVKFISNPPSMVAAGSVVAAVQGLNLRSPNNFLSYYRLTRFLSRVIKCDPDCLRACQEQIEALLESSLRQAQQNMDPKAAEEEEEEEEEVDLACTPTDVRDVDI
Chain of CDK1/CCNB1 (P06493 whole entry): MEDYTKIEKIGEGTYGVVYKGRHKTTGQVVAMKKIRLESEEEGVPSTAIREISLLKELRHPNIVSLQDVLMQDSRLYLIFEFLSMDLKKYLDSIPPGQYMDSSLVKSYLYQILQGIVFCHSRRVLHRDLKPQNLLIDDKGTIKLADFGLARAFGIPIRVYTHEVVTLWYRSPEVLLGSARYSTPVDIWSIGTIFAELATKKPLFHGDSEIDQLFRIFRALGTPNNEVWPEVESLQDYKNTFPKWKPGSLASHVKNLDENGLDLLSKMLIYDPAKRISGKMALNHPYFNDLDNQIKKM
Chain of CDK1/CCNB1 (P14635 whole entry partner): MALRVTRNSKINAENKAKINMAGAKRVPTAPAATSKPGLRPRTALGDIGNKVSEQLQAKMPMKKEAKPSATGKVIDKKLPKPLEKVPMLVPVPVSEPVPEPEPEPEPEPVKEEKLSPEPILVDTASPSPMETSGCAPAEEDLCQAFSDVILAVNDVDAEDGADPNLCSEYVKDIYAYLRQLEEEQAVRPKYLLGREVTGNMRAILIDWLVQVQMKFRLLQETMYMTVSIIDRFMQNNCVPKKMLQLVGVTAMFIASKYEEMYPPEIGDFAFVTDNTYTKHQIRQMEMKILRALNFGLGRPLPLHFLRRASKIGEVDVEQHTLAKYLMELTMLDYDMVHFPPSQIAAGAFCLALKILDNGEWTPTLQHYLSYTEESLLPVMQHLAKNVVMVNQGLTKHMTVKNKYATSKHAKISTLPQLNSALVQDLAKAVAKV
Chain of CDK4/CCND3 (P11802 whole entry): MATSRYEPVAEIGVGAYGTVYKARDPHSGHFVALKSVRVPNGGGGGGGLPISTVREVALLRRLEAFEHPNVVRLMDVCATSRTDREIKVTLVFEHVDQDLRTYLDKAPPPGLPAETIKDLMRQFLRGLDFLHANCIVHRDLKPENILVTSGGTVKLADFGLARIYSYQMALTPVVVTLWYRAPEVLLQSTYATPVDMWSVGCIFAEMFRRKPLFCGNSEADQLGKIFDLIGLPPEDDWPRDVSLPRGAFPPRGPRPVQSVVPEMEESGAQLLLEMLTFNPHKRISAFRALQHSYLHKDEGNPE
Chain of CDK4/CCND3 (P30281 whole entry partner): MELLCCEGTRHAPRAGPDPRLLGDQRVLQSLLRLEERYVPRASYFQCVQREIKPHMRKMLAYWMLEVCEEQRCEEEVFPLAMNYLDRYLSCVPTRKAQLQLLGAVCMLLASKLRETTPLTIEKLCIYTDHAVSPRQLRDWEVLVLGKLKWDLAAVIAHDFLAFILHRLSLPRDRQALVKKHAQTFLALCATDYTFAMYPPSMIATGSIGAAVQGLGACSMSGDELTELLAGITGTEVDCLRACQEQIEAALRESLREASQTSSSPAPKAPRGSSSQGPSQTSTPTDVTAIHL

| SMILES | IC50 [1, 5] | IC50 [2] | IC50 [3] | IC50 ([4]; x = IC50 <25 nM, read-out: CDK6/CCND IC50 (<25 nM)) | IC50 [4, 6] | IC50 [1, 7] | IC50 ([1]; x = IC50 >250 nM, read-out: CDK2/CCNE IC50 (>250 nM column)) |
| --- | --- | --- | --- | --- | --- | --- | --- |
| Cc1ccc(C#Cc2nccc3cnc(Nc4ccc(S(C)(=O)=O)cc4)cc23)c(C#N)n1 [Ex 553, 6-methyl-3-((7-((4-(methylsulfonyl)phenyl)amino)-2,6-naphthyridin-1-yl)ethynyl)picolinonitrile] | 0.025 to 0.25 µM | > 0.25 µM | > 0.25 µM | < 0.025 µM |  |  |  |
| CS(=O)(=O)c1ccc(Nc2cc3c(C#Cc4ccc(C#N)cc4F)nccc3cn2)cc1 [Ex 554, 3-fluoro-4-((7-((4-(methylsulfonyl)phenyl)amino)-2,6-naphthyridin-1-yl)ethynyl)benzonitrile] | 0.025 to 0.25 µM | > 0.25 µM | > 0.25 µM |  | > 0.25 µM |  |  |
| Cc1cnc(C#Cc2nccc3cnc(Nc4ccc(S(C)(=O)=O)cc4)cc23)c(C)n1 [Ex 555, 5-((3,5-dimethylpyrazin-2-yl)ethynyl)-N-(4-(methylsulfonyl)phenyl)-2,6-naphthyridin-3-amine] | 0.025 to 0.25 µM | > 0.25 µM | > 0.25 µM |  | > 0.25 µM |  |  |
| CS(=O)(=O)c1ccc(Nc2cc3c(C#Cc4cc(F)cnc4N)nccc3cn2)cc1 [Ex 556, 5-((2-amino-5-fluoropyridin-3-yl)ethynyl)-N-(4-(methylsulfonyl)phenyl)-2,6-naphthyridin-3-amine] | 0.025 to 0.25 µM | > 0.25 µM | > 0.25 µM |  | > 0.25 µM |  |  |
| CS(=O)(=O)c1ccc(Nc2cc3c(C#Cc4cc(N)ncc4F)nccc3cn2)cc1 [Ex 557, 5-((2-amino-5-fluoropyridin-4-yl)ethynyl)-N-(4-(methylsulfonyl)phenyl)-2,6-naphthyridin-3-amine] |  | > 0.25 µM | > 0.25 µM |  | > 0.25 µM | < 0.025 µM |  |
| CS(=O)(=O)c1ccc(Nc2cc3c(C#Cc4ccc(N)nc4Cl)nccc3cn2)cc1 [Ex 558, 5-((6-amino-2-chloropyridin-3-yl)ethynyl)-N-(4-(methylsulfonyl)phenyl)-2,6-naphthyridin-3-amine] | 0.025 to 0.25 µM | > 0.25 µM | > 0.25 µM |  | > 0.25 µM |  |  |
| CS(=O)(=O)c1ccc(Nc2cc3c(C#Cc4cc(N)n[nH]4)nccc3cn2)cc1 [Ex 559, 5-((3-amino-1H-pyrazol-5-yl)ethynyl)-N-(4-(methylsulfonyl)phenyl)-2,6-naphthyridin-3-amine] | 0.025 to 0.25 µM | > 0.25 µM | > 0.25 µM |  | > 0.25 µM |  |  |
| CS(=O)(=O)c1ccc(Nc2cc3c(C#Cc4ccc(F)c(O)c4)nccc3cn2)cc1 [Ex 560, 2-fluoro-5-((7-((4-(methylsulfonyl)phenyl)amino)-2,6-naphthyridin-1-yl)ethynyl)phenol] | 0.025 to 0.25 µM | > 0.25 µM | > 0.25 µM |  | > 0.25 µM |  |  |
| CS(=O)(=O)c1ccc(Nc2cc3c(C#Cc4n[nH]c5ncccc45)nccc3cn2)cc1 [Ex 561, 5-((1H-pyrazolo[3,4-b]pyridin-3-yl)ethynyl)-N-(4-(methylsulfonyl)phenyl)-2,6-naphthyridin-3-amine] | 0.025 to 0.25 µM | > 0.25 µM | > 0.25 µM |  | > 0.25 µM |  |  |
| CC(C)(O)Cn1ncc2c(C#Cc3nccc4cnc(Nc5ccc(S(C)(=O)=O)cc5)cc34)cncc21 [Ex 562, 2-methyl-1-(4-((7-((4-(methylsulfonyl)phenyl)amino)-2,6-naphthyridin-1-yl)ethynyl)-1H-pyrazolo[3,4-c]pyridin-1-yl)propan-2-ol] | 0.025 to 0.25 µM | > 0.25 µM | > 0.25 µM |  | > 0.25 µM |  |  |
| CS(=O)(=O)c1ccc(Nc2cc3c(C#Cc4ccc(C(F)(F)F)cc4N)nccc3cn2)cc1 [Ex 563, 5-((2-amino-4-(trifluoromethyl)phenyl)ethynyl)-N-(4-(methylsulfonyl)phenyl)-2,6-naphthyridin-3-amine] | 0.025 to 0.25 µM | > 0.25 µM | > 0.25 µM |  | > 0.25 µM |  |  |
| Cc1c(C#N)cccc1C#Cc1nccc2cnc(Nc3ccc(S(C)(=O)=O)cc3)cc12 [Ex 564, 2-methyl-3-((7-((4-(methylsulfonyl)phenyl)amino)-2,6-naphthyridin-1-yl)ethynyl)benzonitrile] | 0.025 to 0.25 µM | > 0.25 µM | > 0.25 µM |  | > 0.25 µM |  |  |
| Cc1ncccc1C#Cc1nccc2cnc(Nc3ccc(S(C)(=O)=O)cc3)cc12 [Ex 565, 5-((2-methylpyridin-3-yl)ethynyl)-N-(4-(methylsulfonyl)phenyl)-2,6-naphthyridin-3-amine] | 0.025 to 0.25 µM | > 0.25 µM | > 0.25 µM |  | > 0.25 µM |  |  |
| CS(=O)(=O)c1ccc(Nc2cc3c(C#Cc4ccc(N5CCOCC5)nc4)nccc3cn2)cc1 [Ex 566, N-(4-(methylsulfonyl)phenyl)-5-((6-morpholinopyridin-3-yl)ethynyl)-2,6-naphthyridin-3-amine] | 0.025 to 0.25 µM | > 0.25 µM | > 0.25 µM |  | > 0.25 µM |  |  |
| CS(=O)(=O)c1ccc(Nc2cc3c(C#Cc4ccc(C#N)cc4N)nccc3cn2)cc1 [Ex 567, 3-amino-4-((7-((4-(methylsulfonyl)phenyl)amino)-2,6-naphthyridin-1-yl)ethynyl)benzonitrile] |  | > 0.25 µM | > 0.25 µM |  | > 0.25 µM | < 0.025 µM |  |
| COc1cc(C#Cc2nccc3cnc(Nc4ccc(S(C)(=O)=O)cc4)cc23)ncn1 [Ex 568, 5-((6-methoxypyrimidin-4-yl)ethynyl)-N-(4-(methylsulfonyl)phenyl)-2,6-naphthyridin-3-amine] |  | > 0.25 µM | > 0.25 µM |  | > 0.25 µM |  | > 0.25 µM |
| CS(=O)(=O)c1ccc(Nc2cc3c(C#Cc4cc(Cl)ncc4N)nccc3cn2)cc1 [Ex 569, 5-((5-amino-2-chloropyridin-4-yl)ethynyl)-N-(4-(methylsulfonyl)phenyl)-2,6-naphthyridin-3-amine] | 0.025 to 0.25 µM | > 0.25 µM | > 0.25 µM |  | > 0.25 µM |  |  |
| Cc1ccc(C#Cc2nccc3cnc(Nc4ccc(S(C)(=O)=O)cc4)cc23)c(N)c1 [Ex 570, 5-((2-amino-4-methylphenyl)ethynyl)-N-(4-(methylsulfonyl)phenyl)-2,6-naphthyridin-3-amine] |  | > 0.25 µM | > 0.25 µM |  | > 0.25 µM | < 0.025 µM |  |
| CS(=O)(=O)c1ccc(Nc2cc3c(C#Cc4cc(F)cc(C#N)c4)nccc3cn2)cc1 [Ex 571, 3-fluoro-5-((7-((4-(methylsulfonyl)phenyl)amino)-2,6-naphthyridin-1-yl)ethynyl)benzonitrile] | 0.025 to 0.25 µM | > 0.25 µM | > 0.25 µM |  | > 0.25 µM |  |  |
| CS(=O)(=O)c1ccc(Nc2cc3c(C#Cc4ccncc4N)nccc3cn2)cc1 [Ex 572, 5-((3-aminopyridin-4-yl)ethynyl)-N-(4-(methylsulfonyl)phenyl)-2,6-naphthyridin-3-amine] |  | > 0.25 µM | > 0.25 µM |  | > 0.25 µM | < 0.025 µM |  |
| CS(=O)(=O)c1ccc(Nc2cc3c(C#Cc4n[nH]c5ccccc45)nccc3cn2)cc1 [Ex 573, 5-((1H-indazol-3-yl)ethynyl)-N-(4-(methylsulfonyl)phenyl)-2,6-naphthyridin-3-amine] | 0.025 to 0.25 µM | > 0.25 µM | > 0.25 µM |  | > 0.25 µM |  |  |
| CS(=O)(=O)c1ccc(Nc2cc3c(C#Cc4cnc5cc[nH]c5c4)nccc3cn2)cc1 [Ex 574, 5-((1H-pyrrolo[3,2-b]pyridin-6-yl)ethynyl)-N-(4-(methylsulfonyl)phenyl)-2,6-naphthyridin-3-amine] |  | > 0.25 µM | > 0.25 µM |  | > 0.25 µM | < 0.025 µM |  |
| CS(=O)(=O)c1ccc(Nc2cc3c(C#Cc4cncc(Cl)c4N)nccc3cn2)cc1 [Ex 575, 5-((4-amino-5-chloropyridin-3-yl)ethynyl)-N-(4-(methylsulfonyl)phenyl)-2,6-naphthyridin-3-amine] | 0.025 to 0.25 µM | > 0.25 µM | > 0.25 µM |  | > 0.25 µM |  |  |
| CS(=O)(=O)c1ccc(Nc2cc3c(C#Cc4c(N)cccc4Cl)nccc3cn2)cc1 [Ex 576, 5-((2-amino-6-chlorophenyl)ethynyl)-N-(4-(methylsulfonyl)phenyl)-2,6-naphthyridin-3-amine] | 0.025 to 0.25 µM | > 0.25 µM | > 0.25 µM |  | > 0.25 µM |  |  |
